According to PMC7738871, “Covalent modification of Keap1 at Cys77 and Cys434 by pubescenoside a suppresses oxidative stress-induced NLRP3 inflammasome activation in myocardial ischemia-reperfusion injury” (Theranostics, 2021):

Key:
[1] = test system: Nrf2-/- mice under AMI/R injury; test: LAD-induced AMI/R in Nrf2-/- mice; type: in vivo, mouse
Method: The experimental procedures and protocols were approved by the Committee on Ethical USE of Animals of International Institute for Translational Chinese Medicine, Guangzhou University of Chinese Medicine (No. IITCM-20180115). Adult male C57BL/6 mice were purchased from the Laboratory Animal Center, Sun Yat-Sen University (Guangzhou, Guangdong, China), and Nrf2 knockout mice were obtained from Riken. Adult male C57BL/6 or Nrf2 knockout mice were treated with 30 mg/kg PBA or an equal volume of vehicle 15 min prior to reperfusion. Mice were divided into 6 groups: (1) Wild-type sham (n = 10): C57BL/6 mice received vehicle, as the sham group; (2) Wild-type AMI/R group (n = 10): C57BL/6 mice received vehicle (i.p.) 15 min before reperfusion; (3) Wild-type AMI/R plus PBA group (n = 10): C57BL/6 mice received 30 mg/kg PBA (i.p.) 15 min before reperfusion; (4) Nrf2 knockout sham (n = 8) : Nrf2 knockout mice received vehicle (i.p.), as in the sham group; (5) Nrf2 knockout AMI/R group (n = 8): Nrf2 knockout mice received vehicle (i.p.) 15 min before reperfusion; (6) Nrf2 knockout AMI/R plus PBA group (n = 8): Nrf2 knockout mice received 30 mg/kg PBA (i.p.) 15 min before reperfusion. PBA was dissolved in 0.9% NaCl buffer containing 2% EtOH. The vehicle was 0.9% NaCl buffer containing 2% EtOH.
The C57BL/6 mice or Nrf2 knockout mice underwent myocardial ischemia-reperfusion injury as described previously. In brief, mice were anaesthetized by i.p. injection of sodium pentobarbital at a dose of 50 mg/kg and ventilated under a pressure-control VentStar R415 ventilator (RWD Life Science Inc., Shenzhen, China). Following thoracotomy between the 3rd and 4th intercostal spaces, the mouse heart was exposed. The LAD was ligated with an 8-0 silk suture and the PE10 tube for 30 min. PBA and vehicle were i.p. injected 15 min prior to reperfusion. After 30 min of ischemia, the suture with PE10 tube was removed. At the end of 24 h of reperfusion, the LAD was relegated, and 1% Evans blue dye was injected to measure the area at risk (AAR). The hearts of the mice were collected, and frozen at -80 °C for 10 min and cut into 5 slices. The slices were incubated with 1% 2,3,5-triphenyltetrazolium chloride (TTC, Santa Cruz, USA) at 37 °C for 15 min and fixed with 4% paraformaldehyde overnight. The slices were captured and the areas of AAR and IA were quantified by using ImageJ software.
Hemodynamic measurements were performed using a PV-loop catheter (Transonic Systems Inc., Ithaca, NY, USA). Hemodynamic measurements were analysed using Ponemah 7700 modules software according to a standardized protocol. The maximum rate of rise of left ventricular pressure increase (+dp/dtmax) and the maximum rate of rise of left ventricular pressure decrease (-dp/dtmax) were calculated for all mice.

HO-1 and NQO1 = HO-1 and NQO1 protein expression, RAW264.7; type: cell-based; settings: RAW264.7, 24 h, dose-dependent
Method: Total protein was isolated from H9c2 cells, primary mouse cardiomyocytes, RAW264.7 cells and heart tissue using 1X RIPA buffer containing phosphatase and proteinase inhibitors at 4 °C. After measurement of the concentration, the cell lysates were separated by sodium dodecyl sulphate polyacrylamide gel electrophoresis (SDS-PAGE) and transferred to polyvinylidene fluoride (PVDF) membranes. The membranes were blocked in Tris-buffered saline-Tween 20 (TBST) buffer with 5% BSA for 1 h and incubated with primary antibodies (1:1000 dilution) overnight at 4 °C. After the membranes was washed by TBST buffer for three times, they were incubated with horseradish peroxidase (HRP)-conjugated secondary mouse or rabbit antibodies (1:3,000 dilution) at room temperature (RT) for 1.5 h and then detected by SuperEnhanced chemiluminescence (ECL) reaction reagents (GBCBIO Technologies Inc., Guangzhou, Guangdong, China). In brief, drop evenly the ECL working liquid onto the membrane at the ratio of 1 mL ECL working liquid and 10 cm^2 of membrane. After letting the membranes stand for 1-2 min, the bands of the respective proteins were detected with the exposure time of 10 ~60 s.

[2] = test system: Keap1-dependent Nrf2 ubiquitination; test: Keap1-dependent Nrf2 ubiquitination in 293T cells; type: cell-based, human
Method: Alkylation of the BTB domain of Keap1 by covalent modifiers contributes to the disruption of the Keap1-Cul3 interactions, leading to Nrf2 activation. Next, we investigated the effect of PBA on the modulation of Nrf2 ubiquitination as Nrf2 stability is controlled by ubiquitin-mediated proteasomal degradation. First, 3X Flag-Keap1, Myc-Nrf2 and Ub plasmids were transfected into 293T cells and then, the cells were treated with 30 μM PBA for 20 h and 5 μM MG132 for another 4 h. Cell lysates were pulled down using anti-Myc beads, and immunopurified Nrf2 was examined for the occurrence of Ub by western blotting. […] As shown in Figure 6E-F, PBA could disrupt the interaction of Keap1 and Cul3 in WT-Keap1 cells, while the disruption was blocked in the Cys77S and Cys434-Keap1 mutant cells.
Figure 6 PBA suppresses Keap1-mediated ubiquitination of Nrf2 by disrupting the interaction between Cul3 and Keap1. (A and B) PBA suppressed Nrf2 ubiquitination in a Keap1-Cys77 and C434-dependent manner. First, 293T cells were transfected with WT-Keap1 or C77S and C434S-Keap1, Myc-Nrf2, and Ub plasmids for 24 h and treated with 30 μM PBA. The cell lysates were immunoprecipitated using anti-Myc beads, and the ubiquitination level was evaluated using the anti-Ub antibody. (C and D) PBA induced the dissociation of the Nrf2-Keap1 complex. Then, 293T cells were cotransfected with WT-Keap1 and Flag-Nrf2 plasmids for 24 h and treated with 30 μM PBA for 12 h. The cell lysates were immunoprecipitated with the anti-Flag antibody, and the level of Nrf2 was assessed using the anti-Nrf2 antibody. (E and F) PBA disrupted the interaction between Cul3 and Keap1. […] The cell lysates were immunoprecipitated with the anti-Flag antibody, and the level of Cul3 was measured using the anti-Cul3 antibody. #p < 0.05, ##p < 0.01, ###p < 0.001, the control vs DMSO; *p < 0.05,**p < 0.01, ***p < 0.001, PBA or tBHQ vs DMSO. […] Cell viability was measured by MTT assays. #p < 0.05, ###p < 0.001, the control vs OGD/R; **p < 0.01, ***p < 0.001, OGD/R+PBA vs OGD/R.

## C=C(COC(=O)C=Cc1ccc(O)c(O)c1)C(O)COC1OC(CO)C(O)C(O)C1O (centres unmarked) [PBA, pubescenoside A]
[1]
  inflammatory cells infiltration and disturbed myofibrillar structure (H&E staining): could not suppress
[1]; 30 mg/kg i.p., AMI/R
  cardioprotective effect: disappeared
  decrease effect of CK-MB level: blocked
  increase effect of -dp/dtmax and -dp/dtmax: blocked
[1]; WB analysis
  suppressive effect on the NLRP3 inflammasome in heart tissue: blocked
HO-1 and NQO1
  HO-1 and NQO1 expression at the protein level: increased
[2]; WT Keap1, 30 μM PBA 20 h, 5 μM MG132 4 h
  Keap1-dependent Nrf2 ubiquitination: significantly suppressed
[2]; mutant Cys77S and Cys434S-Keap1 vectors
  protection of Nrf2 from ubiquitination with mutant Keap1: unable to protect Nrf2 from ubiquitination
